# Where “and” joins values, the source holds several entries; their conditions need not be identical. Equal entries are not always repeated. Entries after “also recorded” stand apart in the source; their conditions may differ. Where two headings read alike, the source gives them in different places.
# Key:
# [1] = tested on: non-transfected HEK 293 cells; test: Ca2+ fluorimetry (Fluo-4) in non-transfected HEK 293 cells (control); assay type: cell-based; conditions: for change in Ca2+-dependent Fluo-4 fluorescence: biogenic amines 1 μM each
# Experimental: (§1) The ability of the Dm5-HT2B-HA receptor (hereafter referred to as Dm5-HT2B) to activate Gq proteins was assessed by monitoring changes in [Ca^2+]i with the Ca^2+-sensitive fluorescent dye Fluo-4 (Invitrogen). Non-transfected HEK 293 cells and cells expressing Dm5-HT2B were grown in minimal essential medium (MEM + GlutaMAX^TMI (Gibco/ThermoFisher Scientific, Darmstadt, Germany) containing 2% (w/v) Utroser^TM G (Pall, Dreieich, Germany), 1 × non-essential amino acids and 1 × antibiotics/antimycotics) in 96-well plates to a density of ∼3 × 10^4 cells per well. In this format, each vertical row (=8 wells) of the 96-well plate is incubated with the same ligand concentration. Cells were loaded at room temperature with Fluo-4 as described earlier ([Thamm et al., 2013]; [Blankenburg et al., 2015]) in extracellular solution [ES = in mM: 120 NaCl, 5 KCl, 2 MgCl2, 2 CaCl2, 10 HEPES, 10 Glucose, pH 7.4 (NaOH)]. Plates were transferred into a fluorescence reader (FLUOstar Galaxy/Optima; BMG Labtech, Offenburg, Germany) to monitor Fluo-4 fluorescence. The excitation wavelength was 485 nm, and fluorescence emission was detected at 520 nm. Various concentrations of biogenic amines and synthetic receptor ligands were added, once Fluo-4 fluorescence had reached a stable value in each well. The changes in Fluo-4 fluorescence were recorded automatically. Concentration-response curves for putative agonists/antagonists were established in at least two independent experiments with octuplicate determinations (s.a.) per data point.
# [2] = molecular target: T1, Dm5-HT2B (Drosophila melanogaster, UniProt Q8INQ6); test: Ca2+ fluorimetry (Fluo-4), agonist activation of Dm5-HT2B expressed in HEK 293 cells; assay type: cell-based; conditions: for change in Ca2+-dependent Fluo-4 fluorescence: biogenic amines 1 μM each
# Experimental: Stably transfected cells were selected in the presence of the antibiotic G418 (0.8 mg/ml). Isolated foci were propagated and analyzed for the expression of Dm5-HT2B-HA receptor either by immunocytochemistry, Western blotting or by functional Ca^2+ imaging upon receptor activation.
# as §1, with “Cells were loaded at room temperature with Fluo-4 as described earlier ([Thamm et al., 2013]; [Blankenburg et al., 2015]) in extracellular solution [ES = in mM: 120 NaCl, 5 KCl, 2 MgCl2, 2 CaCl2, 10 HEPES, 10 Glucose, pH 7.4 (NaOH)].” left out, “The excitation wavelength was 485 nm, and fluorescence emission was detected at 520 nm.” left out
# [3] = tested on: Am5-HT2A; parameters: method as in Thamm et al., 2013; conditions: ref Thamm et al., 2013, cited from earlier work; for EC50: Am5-HT2A in HEK 293 cells
# [4] = tested on: Am5-HT2B; parameters: method as in Thamm et al., 2013; conditions: ref Thamm et al., 2013, cited from earlier work; for EC50: Am5-HT2B in HEK 293 cells; for Ca2+-dependent fluorescence blocked to: residual signal
# [5] = tested on: D. melanogaster larvae; parameters: method as in Gasque et al., 2013; conditions: ref Gasque et al., 2013; cited from earlier work
# [6] = molecular target: T1, Dm5-HT2B; parameters: method as in Gasque et al. (2013); conditions: Dm5-HT2B in HEK 293T cells, individual cells; ref Gasque et al. (2013); cited from earlier work
# [7] = molecular target: T1, Dm5-HT2B; test: Ca2+ fluorimetry (Fluo-4), antagonists on serotonin-stimulated Dm5-HT2B-expressing HEK 293 cells; assay type: cell-based; conditions: for Maximal inhibition: relative efficacy, signal with 10^-7 M serotonin = 100%; for effect on serotonin-stimulated Dm5-HT2B-expressing cells: 10^-9 M to 10^-4 M antagonist on 10^-7 M serotonin
# Experimental: as §1
# Next, we examined the ability of potential receptor antagonists for impairing Dm5-HT2B activity.
# [8] = tested on: Cv5-HT2A; parameters: method as in Röser et al., 2012; conditions: ref Röser et al., 2012, cited from earlier work; for EC50: Cv5-HT2A in HEK 293 cells
# [9] = tested on: Rp5-HT2B; parameters: method as in Paluzzi et al., 2015; conditions: ref Paluzzi et al., 2015, cited from earlier work; for receptor activity reduced by: Rp5-HT2B, highest of three concentrations tested (10^-7, 10^-6, 10^-5 M)
# [10] = molecular target: tyramine receptor TyrR (CG7431); parameters: method as in Arakawa et al., 1990; conditions: ref Arakawa et al., 1990; cited from earlier work
# [11] = tested on: β-adrenergic-like octopamine receptor Octβ3R (CG42244); parameters: method as in Maqueira et al., 2005; conditions: only 10^-5 M tested; ref Maqueira et al., 2005; cited from earlier work
# [12] = background of 10^-7 M serotonin, Dm5-HT2B-expressing HEK 293 cells
# T1 sequence (Q8INQ6 entry or part of it): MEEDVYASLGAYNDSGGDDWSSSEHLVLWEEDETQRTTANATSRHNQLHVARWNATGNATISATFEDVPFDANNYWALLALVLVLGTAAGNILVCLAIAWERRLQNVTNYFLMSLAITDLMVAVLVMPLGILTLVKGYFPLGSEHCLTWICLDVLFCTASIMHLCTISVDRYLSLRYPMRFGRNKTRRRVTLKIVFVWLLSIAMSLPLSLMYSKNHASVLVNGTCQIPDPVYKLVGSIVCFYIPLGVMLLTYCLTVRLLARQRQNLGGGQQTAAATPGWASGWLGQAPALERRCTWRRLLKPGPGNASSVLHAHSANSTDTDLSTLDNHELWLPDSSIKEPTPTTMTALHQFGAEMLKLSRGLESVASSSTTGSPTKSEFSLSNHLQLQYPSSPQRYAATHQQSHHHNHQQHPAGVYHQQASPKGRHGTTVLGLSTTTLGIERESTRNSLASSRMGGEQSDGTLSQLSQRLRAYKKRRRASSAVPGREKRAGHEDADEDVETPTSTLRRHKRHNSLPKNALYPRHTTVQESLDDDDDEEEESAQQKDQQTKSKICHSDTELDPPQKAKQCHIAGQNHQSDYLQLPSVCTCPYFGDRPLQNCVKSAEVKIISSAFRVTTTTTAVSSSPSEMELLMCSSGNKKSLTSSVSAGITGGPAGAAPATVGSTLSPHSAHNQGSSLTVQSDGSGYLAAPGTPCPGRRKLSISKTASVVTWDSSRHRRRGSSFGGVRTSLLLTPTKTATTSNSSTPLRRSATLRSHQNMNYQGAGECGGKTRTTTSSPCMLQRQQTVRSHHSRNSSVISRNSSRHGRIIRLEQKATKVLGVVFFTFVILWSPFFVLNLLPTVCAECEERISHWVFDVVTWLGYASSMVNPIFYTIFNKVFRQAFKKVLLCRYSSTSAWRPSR
structure (smiles),measurement,setting,value
NCCc1ccc(O)c(O)c1 [dopamine],change in Ca2+-dependent Fluo-4 fluorescence,[1],"Neither dopamine, octopamine nor tyramine evoked responses"
same,change in Ca2+-dependent Fluo-4 fluorescence,[2]; Dm5-HT2B-expressing cells,"Neither dopamine, octopamine nor tyramine evoked responses"
"CSc1ccc2c(c1)C(N1CCN(C)CC1)Cc1ccccc1S2 (stereo not drawn) [Metitepine, metitepine]",inhibition range (IC50),[3]; Am5-HT2A,micromolar range
same,serotonin-induced Ca2+-dependent fluorescence reduced by,[3]; Am5-HT2A,39%
same,antagonist activity,[4]; Am5-HT2B,did not have any activity at all
same,effect on food intake,[5],potent anorectic drug
same,IC50,[6],2000 nM
same,IC50,"[7]; IC50, background of 10^-7 M serotonin, Dm5-HT2B-expressing HEK 293 cells",3.56e-06 M
same,IC50,"[7]; Log IC50 ± SD, logarithm of the IC50 (M), background of 10^-7 M serotonin",3.55e-06 M
same,Maximal inhibition,[7],35%
same,IC50,[8]; Cv5-HT2A,1200 nM
same,serotonin-induced Ca2+ signals reduced to % of control measurements,[8]; Cv5-HT2A,15%
"CC[C@@H](CO)NC(=O)[C@@H]1C=C2c3cccc4c3c(cn4C)C[C@H]2N(C)C1 [Methysergide, methysergide]",effect on serotonin-stimulated Dm5-HT2B-expressing cells,[7],did not observe any effect; also recorded: completely lacked inhibitory potential
same,IC50,[7]; [12],no effect
COc1ccc2[nH]cc(CCN)c2c1 [5-methoxytryptamine],EC50,[3],70 nM
same,EC50,[4],60.4 nM
same,EC50,[8],67 nM
same,EC50,"[2]; EC50 (half-maximal activation of Dm5-HT2B), Dm5-HT2B-expressing HEK 293 cells, Fluo-4 fluorescence, concentrations 10^-9 M to 10^-4 M",1050 nM and ~1000 nM
"COc1cc2nc(N3CCN(C(=O)c4ccco4)CC3)nc(N)c2cc1OC [Prazosin, prazosin]",effect on serotonin-stimulated Dm5-HT2B-expressing cells,[7],caused a reduction of the cellular response; also recorded: the responses did not saturate
same,IC50,[7]; [12],no saturation
same,Maximal inhibition,[7],50%
"O=C(c1ccc(F)cc1)C1CCN(CCn2c(=O)[nH]c3ccccc3c2=O)CC1 [Ketanserin, ketanserin]",effect on serotonin-stimulated Dm5-HT2B-expressing cells,[7],did not observe any effect; also recorded: completely lacked inhibitory potential
same,IC50,[7]; [12],no effect
same,receptor activity reduced by,[9],≥ 50%
NCC(O)c1ccc(O)cc1 (stereo not drawn) [octopamine],change in Ca2+-dependent Fluo-4 fluorescence,[1],"Neither dopamine, octopamine nor tyramine evoked responses"
same,change in Ca2+-dependent Fluo-4 fluorescence,[2]; Dm5-HT2B-expressing cells,"Neither dopamine, octopamine nor tyramine evoked responses"
"O=C(CCCN1CCC2(CC1)C(=O)NCN2c1ccccc1)c1ccc(F)cc1 [Spiperone, spiperone]",effect on serotonin-stimulated Dm5-HT2B-expressing cells,[7],caused a reduction of the cellular response; also recorded: the responses did not saturate
same,IC50,[7]; [12],no saturation
same,Maximal inhibition,[7],25%
"CCCN(CCC)C1CCc2cccc(O)c2C1 (stereo not drawn) [8-OH-DPAT, 8-Hydroxy-2-(di-n-propylamino)tetralin]",EC50,[3],55900 nM
same,EC50,[4],560 nM
same,EC50,[8],62000 nM
same,EC50,[2],~650000 nM
NCCc1c[nH]cn1 [histamine],change in Ca2+-dependent Fluo-4 fluorescence,[1],caused a rise in Ca^2+-dependent Fluo-4 fluorescence
same,change in Ca2+-dependent Fluo-4 fluorescence,[2]; Dm5-HT2B-expressing cells,caused a rise in Ca^2+-dependent Fluo-4 fluorescence
"CN1CCC(=C2c3ccccc3C=Cc3ccccc32)CC1 [Cyproheptadine, cyproheptadine]",serotonin-induced Ca2+-dependent fluorescence reduced by,[3]; Am5-HT2A,36%
same,Ca2+-dependent fluorescence blocked to,[4]; Am5-HT2B,23%
same,receptor activity reduced by,[9],≥ 50%
"CN1CCN2c3ccccc3Cc3ccccc3C2C1 (stereo not drawn) [Mianserin, mianserin]",serotonin-induced Ca2+-dependent fluorescence reduced by,[3]; Am5-HT2A,49%
same,Ca2+-dependent fluorescence blocked to,[4]; Am5-HT2B,24%
same,receptor activity reduced by,[9],≥ 50%
"CN1CCN(C2=Nc3cc(Cl)ccc3Nc3ccccc32)CC1 [Clozapine, clozapine]",Ca2+-dependent fluorescence blocked to,[4]; Am5-HT2B,5%
Cc1cc2c(cc1Cl)N(C(=O)Nc1ccc(Oc3cccnc3C)nc1)CC2 [SB 242084],effect on serotonin-stimulated Dm5-HT2B-expressing cells,[7],did not observe any effect; also recorded: completely lacked inhibitory potential
same,IC50,[7]; [12],no effect
"CCN(CC)CCNC(=O)c1cc(Cl)c(N)cc1OC [Metoclopramide, metoclopramide]",IC50,"[7]; background of 10^-7 M serotonin, Dm5-HT2B-expressing HEK 293 cells, read-out: IC50",1.59e-08 M
same,IC50,"[7]; logarithm of the IC50 (M), background of 10^-7 M serotonin, read-out: Log IC50 ± SD (converted)",1.58e-08 M
same,Maximal inhibition,[7],60%
same,serotonin-evoked Ca2+ response reduced to % of control measurements without antagonist,[7]; residual signal at maximal inhibition,40%
same,Ki,[10],4600 nM
same,effect on receptor,[11],block
NCCc1ccc(O)cc1 [tyramine],change in Ca2+-dependent Fluo-4 fluorescence,[1],"Neither dopamine, octopamine nor tyramine evoked responses"
same,change in Ca2+-dependent Fluo-4 fluorescence,[2]; Dm5-HT2B-expressing cells,"Neither dopamine, octopamine nor tyramine evoked responses"
"NCCc1c[nH]c2ccc(O)cc12 [serotonin, 5-hydroxytryptamine]",EC50,[3],25.7 nM
same,EC50,[4],32.5 nM
same,fluorescence signal at the highest ligand concentration,[1]; 10^-4 M,slight increase in the fluorescence signal
same,change in Ca2+-dependent Fluo-4 fluorescence,[1],not in non-transfected cells
same,EC50,[9]; Rp5-HT2B in CHOK1-aeq cells,201 nM
same,EC50,[8],24 nM
same,concentration at which the concentration-response curve saturated,[2]; Dm5-HT2B-expressing cells,30 µM
same,change in Ca2+-dependent Fluo-4 fluorescence,[2]; Dm5-HT2B-expressing cells,increase in the fluorescence signal

# From PMC5425475 (Frontiers in Systems Neuroscience, 2017)
